# Like-named read-outs stand apart in the source and are kept apart here.
# Experiments:
# [1] = test system: MM98 (sarcomatoid) malignant pleural mesothelioma cells; test: Cell viability assay (Trypan blue dye exclusion), MM98; assay type: cell-based, human; settings: 72 h treatment; for IC50: mean ± sd
# Protocol: (§1) Complexes 6–9 were tested on a panel of human MPM cell lines together with CDDP and SAA1, added for comparison (Table 1). The half-maximal inhibitory concentration, IC50, was determined on MSTO-211H (biphasic phenotype), REN (epithelioid), BR95 (epithelioid), and MM98 (sarcomatoid) cancer cell lines to identify the most promising Pt(IV) conjugate to be further investigated. To determine the number of viable cells, the use of the dye exclusion assay was preferred to the colorimetric assay because of the heterogeneity in the energy metabolism between the different MPM cell lines. This may justify minor differences with respect to the previously published IC50 for CDDP [40].
# (§2) Cells were seeded at a density of 10 × 10^4 cells per well in 6-well plates in RPMI medium supplemented with 10% fetal bovine serum (FBS), 100 μg mL^−1 streptomycin, and 10 μg mL^−1 penicillin and incubated overnight at 37 °C in a humidified environment containing 5% CO2 to allow adherence. Cisplatin was dissolved in 0.9% w/v aqueous NaCl brought to pH = 3 with HCl (final stock concentration 1 mM). The Pt(IV) complexes were dissolved in DMSO (final stock concentration 5 mM); the resulting solutions were microfiltered (0.45 μm) and their Pt content was checked by ICP-MS (see Section 3.5.2). These mother solutions were diluted in complete medium to the required concentration range.
# (§3) Following 72 h of treatment with the diluent of the compound (Ctrl) or different doses of the Pt compounds, cells were trypsinized and stained with Trypan blue. The number of cells considered viable (unstained cells) was counted in a Bürker haemocytometer within 5 min after staining.
# [2] = test system: MSTO-211H (biphasic phenotype) malignant pleural mesothelioma cells; test: Cell viability assay (Trypan blue dye exclusion), MSTO-211H; assay type: cell-based, human
# Protocol: as §1, §2, §3
# [3] = test system: REN (epithelioid) malignant pleural mesothelioma cells; test: Cell viability assay (Trypan blue dye exclusion), REN; assay type: cell-based, human; settings: 72 h treatment; for IC50: mean ± sd
# Protocol: as §1, §2, §3
# MSTO-211H cells = test: Cell uptake (intracellular Pt by ICP-MS); assay type: cell-based, human; settings: 10 μM, 4 h treatment, mean ± sd
# Protocol: Cellular accumulation of compounds 6–9 was evaluated by means of the intracellular Pt uptake after 4 h treatment of MSTO-211H cells and expressed as ng Pt per 10^6 cells (Table 1). As expected, the Fmoc protection of 6 and 7 enhances the lipophilicity of the complexes, facilitating their cell uptake. Also the elongation of the organic linker from -(CH2)2- to -(CH2)6- increases (to a minor extent) the lipophilicity in 7 and 9 with respect to 6 and 8.
# MSTO-211H cells were seeded in […] Petri dishes and challenged with the compounds and mixtures under investigations (10 μM) in complete medium. At the end of the exposure, cells were washed three times with phosphate buffered saline (PBS) and detached from the Petri dishes using 0.05% Trypsin 1X + 2% EDTA (HyClone, Thermo Fisher). The cells were harvested in fresh complete medium and an automatic cell counting device (Countess®, Life Technologies, Carlsbad, CA, USA) was used to measure the number and the mean diameter from every cell count. The harvested cells were transferred into a borosilicate glass tube and centrifuged at 1100× g rpm for 5 min at room temperature. The supernatant was carefully removed by aspiration, but about 200 μL of the supernatant was left in order to limit the cellular loss. Finally, the cellular pellets were stored at −80 °C. Platinum content determination was performed by ICP-MS (Thermo Optek X Series 2). Complete mineralization was obtained by the addition of 70% w/w HNO3 to each sample (after defrosting), followed by incubation for 1 h at 60 °C in an ultrasonic bath. Before the ICP-MS measurement, the HNO3 was diluted to a final 1% concentration. The instrumental settings were optimized to yield maximum sensitivity for platinum, and the most abundant isotopes of Pt (m/z = 195) and In (m/z = 115, used as internal standard) were quantified. The level of Pt found in cells after the treatment was normalized to the cell number and expressed as ng of Pt per 10^6 cells.
# [4] = test system: BR95 (epithelioid) malignant pleural mesothelioma cells; test: Cell viability assay (Trypan blue dye exclusion), BR95; assay type: cell-based, human; settings: 72 h treatment; for IC50: mean ± sd
# Protocol: as §1, §2, §3
# PARP-1 = target: T1, PARP-1 (Homo sapiens, UniProt P09874); test: Western blot of poly(ADP-ribose) (PAR) and PARP-1 in MSTO-211H cells; assay type: cell-based; settings: 5 µM, 72 h
# T1 construct: endogenous in cells; host or cells: MSTO-211H cells
# T1 sequence (P09874 whole entry): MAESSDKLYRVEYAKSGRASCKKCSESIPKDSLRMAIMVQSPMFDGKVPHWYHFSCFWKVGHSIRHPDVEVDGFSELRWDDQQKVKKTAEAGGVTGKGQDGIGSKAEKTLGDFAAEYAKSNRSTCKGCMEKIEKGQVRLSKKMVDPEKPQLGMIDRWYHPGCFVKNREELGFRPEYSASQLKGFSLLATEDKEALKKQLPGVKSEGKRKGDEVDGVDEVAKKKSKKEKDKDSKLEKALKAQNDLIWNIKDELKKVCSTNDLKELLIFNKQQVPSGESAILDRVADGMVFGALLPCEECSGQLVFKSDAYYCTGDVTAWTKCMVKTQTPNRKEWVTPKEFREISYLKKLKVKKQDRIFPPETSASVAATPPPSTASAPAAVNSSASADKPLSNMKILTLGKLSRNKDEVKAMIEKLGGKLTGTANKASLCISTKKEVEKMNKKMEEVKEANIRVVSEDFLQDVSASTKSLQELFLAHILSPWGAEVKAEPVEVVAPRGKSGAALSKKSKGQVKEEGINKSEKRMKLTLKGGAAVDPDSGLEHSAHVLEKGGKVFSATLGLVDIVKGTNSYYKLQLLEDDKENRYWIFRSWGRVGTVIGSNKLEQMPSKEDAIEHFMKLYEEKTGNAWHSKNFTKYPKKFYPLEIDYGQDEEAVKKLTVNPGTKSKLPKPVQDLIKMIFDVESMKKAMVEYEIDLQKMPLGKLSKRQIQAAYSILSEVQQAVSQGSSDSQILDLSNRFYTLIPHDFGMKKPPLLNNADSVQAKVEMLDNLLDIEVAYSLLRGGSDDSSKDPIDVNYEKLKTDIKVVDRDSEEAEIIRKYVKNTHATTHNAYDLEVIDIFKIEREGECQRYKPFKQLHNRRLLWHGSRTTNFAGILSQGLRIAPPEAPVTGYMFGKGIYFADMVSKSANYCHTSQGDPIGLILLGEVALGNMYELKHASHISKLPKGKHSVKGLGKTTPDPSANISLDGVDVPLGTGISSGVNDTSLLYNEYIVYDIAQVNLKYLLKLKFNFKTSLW
# Protocol: The effect of the most promising complex 6 on PARP-1 activity was further evaluated. MSTO-211H cells were treated with equimolar concentrations (5 µM) of 6, CDDP, and 3-ABA for 72 h. The two last compounds were used either alone or in combination in a 1:1 molar ratio. Western blot analysis evaluated the expression of poly(ADP-ribose) (PAR), which is the product of PARP-1 activity (Figure 4A).
# For protein analysis, cells were extracted with 1% NP-40 lysis buffer (50 mM Tris-HCl pH 8.5 containing 1% NP-40, 150 mM NaCl, 10 mM EDTA, 10 mM NaF, 10 mM Na4P2O7, and 0.4 mM Na3VO4) with freshly added protease inhibitors (10 μg mL^−1 leupeptin, 4 μg mL^−1 pepstatin, and 0.1 U mL^−1 aprotinin). Lysates were centrifuged at 13,000× g for 10 min at 4 °C and the supernatants were collected and assayed for protein concentration with the Bradford assay method (Bio-Rad). Proteins were separated by SDS-PAGE (sodium dodecyl sulfate polyacrylamide gel electrophoresis) under reducing conditions. Following SDS-PAGE, proteins were transferred to nitrocellulose, reacted with specific antibodies, and then detected with peroxidase-conjugate secondary antibodies and chemioluminescent ECL reagent. Digital images were taken with the Bio-Rad ChemiDocTM Touch Imaging System and quantified using Bio-Rad Image Lab 5.2.1.
# Figure 4 (A) Representative Western blot showing poly(ADP-ribose) (PAR) and PARP-1 expression following 72 h MSTO-211H cell treatment with diluent (Ctrl) or 5 µM concentrations of cisplatin (CDDP), 6, CDDP + 3-ABA combination (1:1 ratio), and 3-ABA alone. HSC70 protein was used as loading control. (B) Immunocytochemistry was used to capture representative γH2AX focus images following 72 h MSTO-211H cell treatment with diluent (Ctrl) or 5 µM of complex 6.
# [5] = Lipophilicity by RP-HPLC (log k′); assay type: physicochemical; settings: RP-HPLC C18, 15 mM formic acid/CH3OH 30/70
# Excerpt: Since it has been reported that Pt(IV) complexes enter cells by passive diffusion only, with a few exceptions, the evaluation of lipophilicity is key because it is related to the ability of a molecule to passively cross cellular membranes. RP-HPLC techniques are often used to measure the lipophilicity of a compound, since the retention is due to partitioning between the C18 chains of the stationary phase (representing the cellular membrane) and the aqueous eluent (representing the water inside and outside cells). For this purpose, the retention times (tR) of the complexes were transformed as log k′, where k′ = (tR − t0)/t0) and t0 is the column dead-time (Table 1).
# RP-HPLC was used to evaluate the capacity factors of the compounds as reported elsewhere. Briefly, a chromatogram for each Pt complex (0.5 mM) was run on a C18 column Phenosphere-NEXT (5-μm, 250 × 4.6 mm ID) with an eluant composition of 15 mM formic acid/CH3OH 30/70 and a flow rate of 0.5 mL min^−1. The corresponding retention time tR was used to calculate log k′, where k′ = (tR − t0)/t0. The dead time of the column t0 was the tR of KCl, added as unretained internal reference.
# [6] = Reduction with ascorbic acid followed by RP-HPLC; assay type: physicochemical; settings: ascorbic acid 10 mM, HEPES 50 mM pH 7.4, 37 °C, cosolvent DMF or MeOH
# Protocol: To verify the activation by reduction mechanism, complexes 6–9 were challenged with the model bioreductant ascorbic acid (AA, 10 mM in water) in HEPES buffer (HEPES = 4-(2-hydroxyethyl)-1-piperazineethanesulfonic acid, 50 mM, pH = 7.4) at 37 °C. The reaction was monitored by following the RP-HPLC peaks over 24 h. The different solubility and retention times required different experimental conditions for the different compounds (cosolvent DMF or MeOH was necessary to maintain the Pt compounds in solution, >5% v/v). For these reasons, complete reduction for 8 and 9 was observed after 8 h, whereas for 6 and 7, the >85% peak area disappeared after 24 h only. […] Complexes 6–9, having very similar coordination skeletons, can be expected to behave in the same way.
# The reduction of complexes with ascorbic acid was followed by monitoring of the reduction of the area of their chromatographic peaks via RP-HPLC over 24 h at 37 °C. The Pt compounds were dissolved in methanol or DMF (up to 20 mM) and diluted with different quantities of 50 mM 4-(2-hydroxyethyl)piperazine-1-ethanesulfonic acid (HEPES) buffer (pH = […]) containing 10 mM ascorbic acid. The mixtures were microfiltered to eliminate the precipitated complex. The chromatographic conditions were similar to those for the determination of lipophilicity (see Section 3.4), with different percentages of methanol depending on the complex.
# [7] = 72 h treatment, mean ± sd, read-out: IC50 MSTO-211H
Compound,IC50 [1] [µM],"IC50 [2, 7] [µM]",IC50 [3] [µM],IC50 [4] [µM],Log k′ [5],time to complete reduction [6] [h],peak area disappeared after 24 h ([6]; 24 h) [%],"IC50 ([2]; Homo sapiens, MSTO-211H, read-out: IC50 on MSTO-211H) [µM]",Pt Uptake (MSTO-211H cells) [ng Pt per 10^6 Cells],PARP-1 cleavage (PARP-1),PARP-1 parylation (PAR expression) (PARP-1),"ratio IC50 (cisplatin)/IC50 (Pt(IV) complex), MSTO-211H ([2]; 72 h treatment)","ratio IC50 (cisplatin)/IC50 (Pt(IV) complex), REN [3]","ratio IC50 (cisplatin)/IC50 (Pt(IV) complex), BR95 [4]","ratio IC50 (cisplatin)/IC50 (Pt(IV) complex), MM98 [1]"
"N.N.[Cl][Pt][Cl] [Cisplatin, CDDP, (SP-4-2)-diamminedichloridoplatinum(II), reference compound]",1.75 ± 0.09,1.14 ± 0.07,3.07 ± 0.43,2.15 ± 0.29,,,,,9.23 ± 0.96,did not induce PARP-1 cleavage,increase in PARP-1 parylation,,,,
"CC(=O)[O][Pt]([NH2])([NH2])([Cl])([Cl])[O]C(=O)CCCCCCNC(=O)c1cccc(NC(=O)OCC2c3ccccc3-c3ccccc32)c1 [Compound 7, (OC-6-44)-Acetato-[7-(3-(fmoc-amino)-benzamido)-heptanoato]-diammine-dichlorido-platinum(IV)]",0.45 ± 0.08,1.48 ± 0.02,2.22 ± 0.08,2.19 ± 0.13,5.84,,> 85,,10.86 ± 1.17,,,0.77,1.4,0.98,3.9
"NC(=O)c1cccc(N)c1 [Compound 3-ABA, 3-aminobenzamide, reference compound]",,,,,,,,5412 ± 28,,,No self-parylation of PARP-1,,,,

# Second part, led by results:
IC50 [1] [µM],"IC50 [2, 7] [µM]",IC50 [3] [µM],IC50 [4] [µM],Log k′ [5],time to complete reduction [6] [h],peak area disappeared after 24 h ([6]; 24 h) [%],"IC50 ([2]; Homo sapiens, MSTO-211H, read-out: IC50 on MSTO-211H) [µM]",Compound,Pt Uptake (MSTO-211H cells) [ng Pt per 10^6 Cells],PARP-1 cleavage (PARP-1),PARP-1 parylation (PAR expression) (PARP-1),"ratio IC50 (cisplatin)/IC50 (Pt(IV) complex), MSTO-211H ([2]; 72 h treatment)","ratio IC50 (cisplatin)/IC50 (Pt(IV) complex), REN [3]","ratio IC50 (cisplatin)/IC50 (Pt(IV) complex), BR95 [4]","ratio IC50 (cisplatin)/IC50 (Pt(IV) complex), MM98 [1]"
44.1 ± 3.5,54.9 ± 3.1,38.9 ± 2.2,39.7 ± 2.7,0.34,8,,,"CC(=O)[O][Pt]([NH2])([NH2])([Cl])([Cl])[O]C(=O)CCCCCCNC(=O)c1cccc(N)c1 [Compound 9, (OC-6-44)-Acetato-[7-(3-aminobenzamido)-heptanoato]-diammine-dichlorido-platinum(IV)]",3.12 ± 0.78,,,0.021,0.079,0.054,
58.4 ± 2.7,28.9 ± 2.9,46.9 ± 3.2,56.8 ± 4.3,0.25,8,,,"CC(=O)[O][Pt]([NH2])([NH2])([Cl])([Cl])[O]C(=O)CCNC(=O)c1cccc(N)c1 [Compound 8, (OC-6-44)-Acetato[3-(3-aminobenzamido)-propanoato]-diammine-dichlorido-platinum(IV)]",2.50 ± 1.16,,,0.039,0.065,0.038,0.030

# — paper PMC8402032, “Unsymmetric Cisplatin-Based Pt(IV) Conjugates Containing a PARP-1 Inhibitor Pharmacophore Tested on Malignant Pleural Mesothelioma Cell Lines” (Molecules, 2021)
